Source: paper PMC9131871, “Impact of Micropolymorphism Outside the Peptide Binding Groove in the Clinically Relevant Allele HLA-C*14 on T Cell Responses in HIV-1 Infection” (Journal of Virology, 2022)

Molecular target: HLA-C*14:02 (Homo sapiens, UniProt P10321, A176E/A330V/A35S/A97T/C350S/D114A/D33S/L171W/L180R/L218V/M285V/M309V/M331V/P208H/Q277E/Q291P/R121W/R243W/S123F/S297R/S48A/T329A/T363A/V319A)
Assay: LC-MS/MS identification of HLA-bound HIV-1 peptides from NL4-3-infected .221-C1402 cells
Format: binding
Parameters: key: ●: Closed circles indicate the peptide which was identified in HLA-C*1402 or/and -C*1403 expressing cells
Conditions: HIV-1 NL4-3-infected .221-C1402 cells, W6/32 immunoprecipitation, two independent replicate experiments
Description: 721.221 cells expressing CD4 and HLA-C*14:02 (.221-C1402) or HLA-C*14:03 (.221-C1403) were infected with the laboratory-adapted NL4-3 HIV-1 strain. HLA-peptide complexes were isolated from cell lysates by immunoprecipitation with the anti-HLA class I antibody W6/32; then, peptides were eluted, fractionated by high-performance liquid chromatography (HPLC), and finally analyzed by LC-MS/MS. Two independent replicate experiments were performed, in which a total of 7,970 and 8,447 unique 8- to 13-mer peptide sequences were identified from .221-C1402 and .221-C1403 cells, respectively (Fig. 1A). Of these peptides, 6,163 were identified in both the C*14:02- and C*14:03-bound peptide data sets, while other peptides were detected in the acid-eluted fraction from only a single allele. […] These motifs are consistent with the HLA-C*1402/03 peptide motifs previously estimated using reported epitopes ([29]).
.221-C1402 and .221-C1403 cells were infected with HIV-1 NL4-3 in a low volume of RPMI 1640 medium (Thermo Fisher) containing 10% fetal bovine serum (FBS), 2 mM L-glutamine, 100 U/mL penicillin, 100 μg/mL streptomycin, and 10 mM HEPES (R10). Fifty microliters of NL4-3 stock virus (Reverse transcriptase activity (RT) value = 4 × 10^2 ng/mL) was added to 8 × 10^6 .221-C1402 cells or .221-C1403, and the cells were then incubated for 1.5 h at 37°C, after which 20 mL of R10 was added and the cells were cultured overnight. At day 1 postinfection, a further 20 mL R10 was added, and cells were split (1:2) on day 2. On day 3 postinfection, the proportion of cells infected with HIV-1 was determined by intracellular p24 staining, as previously described ([46]). Infected flasks were then harvested for immunoprecipitation of HLA-peptide complexes.
.221-C1402 cells or .221-C1403 cells infected with NL4-3 (1.5 × 10^8 to 2 × 10^8 cells) were harvested, washed in phosphate-buffered saline (PBS), and lysed in 5 mL of lysis buffer (1% IGEPAL 630, 300 mM NaCl, 100 mM Tris [pH 8.0], plus protease inhibitors) at 4°C for 45 min. Two centrifugation steps (2,000 × g for 10 min followed by 20,000 × g for 30 min at 4°C) were next employed to clear the lysates of cell debris prior to overnight capture of HLA-peptide complexes on W6/32-coated protein A‐Sepharose beads. W6/32-bound HLA-peptide complexes were sequentially washed with 10 to 20 mL of wash buffer 1 (0.005% IGEPAL, 50 mM Tris [pH 8.0], 150 mM NaCl, 5 mM EDTA), wash buffer 2 (50 mM Tris [pH 8.0], 150 mM NaCl), wash buffer 3 (50 mM Tris [pH 8.0], 400 mM NaCl), and finally wash buffer 4 (50 mM Tris [pH 8.0]) under gravity flow in Econo-Column glass chromatography columns (Bio-Rad). Peptide-HLA complexes were eluted from the beads with 5 mL of 10% acetic acid and, after drying under vacuum, were loaded onto a 4.6- by 50-mm ProSwift RP-1S column (Thermo Fisher Scientific) and eluted from an Ultimate 3000 HPLC system (Thermo Scientific) using a 500-μL/min flow rate over 10 min from 2% to 34% buffer B (0.1% trifluoroacetic acid [TFA] in acetonitrile) in buffer A (0.1% TFA in water). Alternate fractions were pooled to give two final peptide fractions that were dried for LC-MS/MS analysis.
Each HPLC-eluted sample was resuspended in 20 μL loading buffer, and 9 μL of it was injected onto a 3-μm-particle-size 0.075-mm by 150-mm Acclaim PepMap RSLC C18 column and further loaded onto a 2-μm-particle-size, 75-μm by 50-cm Acclaim PepMap RSLC C18 column using an Ultimate 3000 nUPLC system (Thermo Scientific). A linear gradient of 3 to 25% buffer B (0.1% formic acid, 5% dimethyl sulfoxide [DMSO] in acetonitrile) in buffer A (0.1% formic acid, 5% DMSO in water) was applied over 1 h to elute peptides from the column (flow rate of […]). Peptides were introduced, using an Easy-Spray source at 2,000 V at 40°C, into a Fusion Lumos mass spectrometer (Thermo Scientific). The ion transfer tube temperature was set to 305°C. […]

Row | Sequence | C1402: peptide identified by LC-MS/MS in HLA-I eluate
1 | AFHHVAREL [Nef AL9] | ●
2 | YFPDWQNYT [Nef YT9] | ●
3 | FLGAAGSTM [Env FM9, HIV-1 NL4-3 Env 522–530 peptide …] | ●
4 | RFDSRLAF [Nef RF8, HIV-1 NL4-3 Nef 184–191 peptide RFDSRLAF] | ●
5 | IYHTQGYF [Nef IF8] | ●
6 | KYHSNWRAM [Pol KM9] | ●
7 | LYNTIAVLY [Gag LY9] | ●
8 | AFSPEVIPM [Gag AM9] | ●
9 | VYYDPSKDL [Pol VYL9, HIV-1 NL4-3 Pol 472–480 peptide …] | ●
